Data set [1] concerns Candida albicans. In words: Antifungal activity against Clinical FLC-resistant Candida albicans 23 measured after 24 hrs by microdilution method. The data set is classed as functional. A general note: Broth dilution looks for growth in wells or tubes with falling amounts of substance.
Data set [2] deals with Candida albicans. In words: Synergistic antifungal activity against Clinical FLC-resistant Candida albicans 23 assessed as fractional inhibitory concentration index measured after 24 hrs in presence of fluconazole by microdilution method. The data set is classed as functional.
Data set [3] deals with Candida albicans. In words: Antifungal activity against clinical FLC-resistant Candida albicans 3511 measured after 24 hrs by microdilution method. The class given is functional.
For data set [4], the system named is Candida albicans. Description: Synergistic antifungal activity against clinical FLC-resistant Candida albicans 187 measured after 24 hrs in presence of fluconazole by microdilution method. The class given is functional.
Data set [5] concerns Candida albicans. In words: Synergistic antifungal activity against clinical FLC-resistant Candida albicans 3816 measured after 24 hrs by microdilution method. The class given is functional.
Data set [6] relates to Candida albicans. Description: Synergistic antifungal activity against clinical FLC-resistant Candida albicans 550 assessed as fractional inhibitory concentration index measured after 24 hrs by microdilution method. The data set is classed as functional.
The subject of data set [7] is Candida albicans. Description: Synergistic antifungal activity against FLC-resistant Candida albicans ATCC 14053 measured over 48 hrs in presence of fluconazole by time-killing assay. The class given is functional, organism-based.
The test system of data set [8] is Candida albicans. In words: Synergistic antifungal activity against FLC-resistant Candida albicans ATCC 14053 assessed as inhibition of rhodamine 6G efflux incubated for 4 hrs under shaking condition in presence of fluconazole by Rhodamine 6G staining based fluorescence assay. The class given is functional, organism-based.
Data set [9] deals with Candida albicans. Description: Synergistic antifungal activity against FLC-resistant Candida albicans ATCC 14053 assessed as inhibition of hyphal formation by measuring down regulation of RAS1 gene expression at 1 ug/ml measured after 16 to 18 hrs in presence of fluconazole by qRT-PCR analysis. Particulars: dose 1.0 µg/ml, time 16-18 hrs. The data set is classed as functional, organism-based.

In data set [10] the test system is Candida albicans. In words: Synergistic antifungal activity against FLC-resistant Candida albicans ATCC 14053 assessed as inhibition of hyphal formation by measuring down regulation of EFG1 gene expression at 1 ug/ml measured after 16 to 18 hrs in presence of fluconazole by qRT-PCR analysis. The class given is functional, organism-based. As to conditions: dose 1.0 µg/ml, time 16-18 hrs. In general terms: In qPCR the cycle at which signal appears reflects the starting amount.

Data set [11] relates to Candida albicans. In words: Synergistic antifungal activity against FLC-resistant Candida albicans ATCC 14053 assessed as inhibition of hyphal formation by measuring down regulation of ECE1 gene expression at 1 ug/ml measured after 16 to 18 hrs in presence of fluconazole by qRT-PCR analysis. The data set is classed as functional, organism-based. Particulars: dose 1.0 µg/ml, time 16-18 hrs.

Data set [12] has as its system Candida albicans. In words: Synergistic antifungal activity against FLC-resistant Candida albicans ATCC 14053 assessed as inhibition of hyphal formation by measuring down regulation of HWP1 gene expression at 1 ug/ml measured after 16 to 18 hrs in presence of fluconazole by qRT-PCR analysis. Particulars: dose 1.0 µg/ml, time 16-18 hrs. The data set is classed as functional, organism-based.

The nature of data set [13]: Toxicity in Balb/c mouse assessed as death at 15 mg/kg, ig measured daily for 6 days. Particulars: in vivo, po, 144 h, time 6 day. The data set is classed as organism-based.
The nature of data set [14]: Toxicity in Balb/c mouse assessed as weight loss at 7.5 to 15 mg/kg, ig measured daily for 6 days in presence of fluconazole. The data set is classed as organism-based. Particulars: in vivo, po, 144 h, dose 7.5-15 mg/kg, time 6 day.
Data set [15] deals with Candida albicans. In words: In vivo antifungal activity against FLC-resistant Candida albicans ATCC 14053 infected in Balb/c mouse assessed as reduction in kidney fungal load at 7.5 to 15 mg/kg, ig measured after 6 days in presence of fluconazole. The class given is functional, organism-based. As to conditions: dose 7.5-15 mg/kg, time 6.0 day.
In data set [16] the test system is Candida albicans. Description: In vivo antifungal activity against FLC-resistant Candida albicans ATCC 14053 infected in Balb/c mouse assessed as reduction in lung fungal load at 15 mg/kg, ig measured after 6 days. The data set is classed as functional, organism-based. Particulars: time 6.0 day.
Data set [17] relates to Candida albicans. In words: In vivo antifungal activity against FLC-resistant Candida albicans ATCC 14053 infected in Balb/c mouse assessed as increase in organ coefficients of spleen at 7.5 to 15 mg/kg, ig measured after 6 days in presence of fluconazole. The class given is functional, organism-based. Particulars: dose 7.5-15 mg/kg, time 6.0 day.
In data set [18] the test system is Candida albicans. In words: In vivo antifungal activity against FLC-resistant Candida albicans ATCC 14053 infected in Balb/c mouse assessed as restoration of normal glomeruli morphology at 15 mg/kg, ig measured after 6 days by H and E staining based histopathological analysis. The class given is functional, organism-based. As to conditions: time 6.0 day.
Data set [19] concerns Candida albicans. In words: In vivo antifungal activity against FLC-resistant Candida albicans ATCC 14053 infected in Balb/c mouse assessed as reduction in severity of lesions in lungs at 15 mg/kg, ig measured after 6 days by H and E staining based histopathological analysis. Particulars: time 6.0 day. The data set is classed as functional, organism-based.
Data set [20] relates to Candida albicans. In words: In vivo antifungal activity against FLC-resistant Candida albicans ATCC 14053 infected in Balb/c mouse assessed as removal of colonized fungi at 15 mg/kg, ig measured after 6 days by H and E staining based histopathological analysis. The class given is functional, organism-based. Particulars: time 6.0 day.

SMILES strings stand for the structures. Activity calls are given as the source filed them. The calls are words filed in the database; no cut-off is given here. Where only a bound is given, the exact number is not on record here.

Experimental findings from ChEMBL document CHEMBL5625249, “Optimization and antifungal activity of quinoline derivatives linked to chalcone moiety combined with FLC against Candida albicans” (Eur J Med Chem, 2023) are described below.

For `CN1CCN(c2nc3ccccc3cc2/C=C/C(=O)c2ccc(N3CCN(Cc4ccc(C(F)(F)F)cc4)CC3)cc2)CC1`, the MIC80 was greater than 40 µg/mL in data set [1], greater than 40 µg/mL in data set [3], 0.54 µg/mL in [4] and 1.2 µg/mL in data set [5]. For the same compound, the “fractional inhibitory concentration index (FICI)” value came to 0.03 in data set [2] and 0.15 in [6]. The Activity result was “Dose-Dependent Effect” in data set [7], “Non-Toxic” in [13] and “Non-Toxic” in data set [14]. Further, the inhibition entry in [8], in data set [9], in [10], in data set [11] and in data set [12] was “Active” in each case. For the same compound, the result in data set [15] and in data set [17] was Active. Besides, the result in data set [16], in data set [18], in data set [19] and in data set [20] was inactive.

In general, MIC80 refers to the lowest concentration that inhibits either 80% of growth or 80% of the strains tested, depending on the study.
